From patent US20140249135A1, “PIM KINASE INHIBITORS AND METHODS OF THEIR USE” (NOVARTIS AG, priority 2007, published 2014)
Read-outs that look alike come from different tables or passages of the source.

Assays:
Format in all cases: biochemical
Pim1 kinase = Pim1 kinase (Homo sapiens, UniProt P11309); assay: Pim1 ATP depletion assay; details: Pim1 ATP depletion assay;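 also: Luciferase-luciferin luminescence readout of residual ATP after PIM1 transfers phosphate to a peptide substrate, 40 µM ATP added, reaction run to roughly half ATP consumption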
Pim1 kinase, sequence (P11309 whole entry): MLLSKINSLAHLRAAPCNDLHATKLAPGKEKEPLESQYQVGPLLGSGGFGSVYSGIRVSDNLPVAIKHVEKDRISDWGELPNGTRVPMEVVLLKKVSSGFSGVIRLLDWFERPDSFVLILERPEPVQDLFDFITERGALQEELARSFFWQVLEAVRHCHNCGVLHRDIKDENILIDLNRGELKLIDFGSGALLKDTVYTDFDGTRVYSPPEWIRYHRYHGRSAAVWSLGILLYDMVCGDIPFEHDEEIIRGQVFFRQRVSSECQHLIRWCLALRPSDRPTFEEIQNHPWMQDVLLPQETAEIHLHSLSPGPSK

Pim2 kinase = Pim2 kinase (Homo sapiens, UniProt Q9P1W9); assay: Pim2 ATP depletion assay;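 also: Luciferase-based luminescent readout of ATP remaining after PIM2 phosphorylates a BAD peptide, final 5 nM enzyme, 4 µM ATP, 10 µM peptide, 2.5% DMSO, run to roughly half ATP consumption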
Pim2 kinase, sequence (Q9P1W9 whole entry): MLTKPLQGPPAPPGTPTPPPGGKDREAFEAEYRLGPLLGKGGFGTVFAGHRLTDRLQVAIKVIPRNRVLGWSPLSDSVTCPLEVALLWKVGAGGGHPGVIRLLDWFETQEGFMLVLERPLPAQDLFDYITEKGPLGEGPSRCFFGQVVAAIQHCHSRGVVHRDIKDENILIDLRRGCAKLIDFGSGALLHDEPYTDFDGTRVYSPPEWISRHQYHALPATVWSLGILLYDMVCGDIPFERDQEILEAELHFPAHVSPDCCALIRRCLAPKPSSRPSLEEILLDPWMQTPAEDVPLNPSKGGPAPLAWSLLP

Pim3 kinase = Pim3 kinase (Homo sapiens, UniProt Q86V86); assay: Pim3 ATP depletion assay

IC50 (Pim1 kinase; read-out: PIM1 IC50) [µM]	IC50 (Pim2 kinase; read-out: PIM2 IC50) [µM]	IC50 (Pim3 kinase; read-out: PIM3 IC50) [µM]	IC50 (Pim1 kinase; read-out: IC50 (μM) PIM1) [µM]	IC50 (Pim2 kinase; read-out: IC50 (μM) PIM2) [µM]	IC50 (Pim3 kinase; read-out: IC50 (μM) PIM3) [µM]	SMILES
< 1	< 1	< 1				Nc1ccc(-c2ccccc2F)nc1C(=O)Nc1cnccc1N1C[C@@H](N)C[C@@H](O)C1 [Example 678, 3-Amino-6-(2-fluoro-phenyl)-pyridine-2-carboxylic acid (5-amino-3-hydroxy-3,4,5,6-tetra-hydro-2H-[1,4′]bipyridinyl-3′-yl)-amide]
			< 1	< 1	< 1	Nc1ncc(-c2ccc(N)c(C(=O)Nc3cnccc3N3CCC[C@H](N)C3)n2)c(N)n1 [Example 417, 3-amino-6-(2,4-diamino-pyrimidin-5-yl)-pyridine-2-carboxylic acid ((S)-3-amino-3,4,5,6-tetrahydro-2H-[1,4′]bi-pyridinyl-3′-yl)-amide]
< 1	1 to 10	< 1				Nc1ccc(-c2ccccc2)nc1C(=O)Nc1cnccc1N1C[C@@H](N)C[C@H](O)C1 [Example 582, 3-Amino-6-phenyl-pyridine-2-carboxylic acid (3-amino-5-hydroxy-3,4,5,6-tetrahydro-2H-[1,4′]bipyridinyl-3′-yl)-amide]
			< 1	< 1	< 1	Cc1cc(-c2ccncc2NC(=O)c2nc(-c3ccccc3)ncc2N)cc(N)n1 [Example 269, 5-Amino-2-phenyl-pyrimidine-4-carboxylic acid (6′-amino-2′-methyl-[4,4′]bipyridinyl-3-yl)-amide]
< 1	< 1	< 1				COc1ccccc1-c1ncc(N)c(C(=O)Nc2cnccc2N2CCC[C@H](N)C2)n1 [Example 551, 5-Amino-2-(2-methoxy-phenyl)-pyrimidine-4-carboxylic acid (3-amino-3,4,5,6-tetrahydro-2H-[1,4′]bipyridinyl-3′-yl)-amide]
			< 1	< 1	< 1	COc1cncc(-c2nc(C(=O)Nc3cnccc3N3CCC[C@H](N)C3)c(N)cc2F)n1 [Example 507, 3-Amino-5-fluoro-6-(6-methoxy-pyrazin-2-yl)-pyridine-2-carboxylic acid (3-amino-3,4,5,6-tetrahydro-2H-[1,4′]bipyridinyl-3′-yl)-amide]
< 1	< 1	< 1				Nc1ccc(-c2ccccc2F)nc1C(=O)Nc1cnccc1-c1cnc(N)c(C(F)(F)F)c1 [Example 603, 3-amino-N-[6-amino-5-(tri-fluoromethyl)-3,4′-bipyridin-3′-yl]-6-(2-fluorophenyl)pyridine-2-carboxamide]
< 1	< 1	< 1				CCc1ccc(N)c(C(=O)Nc2cnccc2N2CCC[C@H](N)C2)n1 [Example 639, 3-amino-N-{4-[(3S)-3-aminopiperidin-1-yl]pyridin-3-yl}-6-ethylpyridine-2-carboxamide]
< 1	1 to 10	1 to 10				Nc1ncc(Br)nc1C(=O)Nc1cnccc1N1CCCC(N(Cc2ccccc2)Cc2ccccc2)C1 (stereo not drawn) [Example 599, 3-amino-6-bromo-pyrazine-2-carboxylic acid (3-dibenzylamino-3,4,5,6-tetrahydro-2H-[1,4′]bi-pyridinyl-3′-yl)-amide]
< 1	< 1	< 1				CC(C)Oc1ccc(F)c(-c2ccc(N)c(C(=O)Nc3cnccc3N3CCC[C@H](O)C3)n2)c1F [Example 652, 3-Amino-6-(2,6-difluoro-3-isopropoxy-phenyl)-pyridine-2-carboxylic acid (3-hydroxy-3,4,5,6-tetrahydro-2H-[1,4′]bi-pyridinyl-3′-yl)-amide]
< 1	< 1	< 1				Cc1nc(-c2ccc(N)c(C(=O)Nc3cnccc3N3CCC[C@H](N)C3)n2)ccc1F [Example 708, 5-Amino-5′-fluoro-6′-methyl-[2,2′]bipyridinyl-6-carboxylic acid (3-amino-3,4,5,6-tetra-hydro-2H-[1,4′]bipyridinyl-3′-yl)-amide]
< 1	< 1	< 1				COc1nc(-c2ccc(N)c(C(=O)Nc3cnccc3N3CCC[C@H](N)C3)n2)ccc1N [Example 705, 5,5′-Diamino-6′-methoxy-[2,2′]bipyridinyl-6-carboxylic acid (3-amino-3,4,5,6-tetra-hydro-2H-[1,4′]bipyridinyl-3′-yl)-amide]
< 1	< 1	< 1				CCCOc1cncc(-c2ccc(N)c(C(=O)Nc3cnccc3N3CCC[C@H](N)C3)n2)n1 [Example 747, 3-Amino-6-(6-propoxy-pyrazin-2-yl)-pyridine-2-carboxylic acid (3-amino-3,4,5,6-tetrahydro-2H-[1,4′]bipyridinyl-3′-yl)-amide]
			< 1	< 1	< 1	Nc1cc(-c2ccncc2NC(=O)c2nc(C3=CCNCC3)ccc2N)nc(C(F)(F)F)n1 [Example 526, 5-Amino-1′,2′,3′,6′-tetrahydro-[2,4′]bipyridinyl-6-carboxylic acid [4-(6-amino-2-trifluoromethyl-pyrimidin-4-yl)-byridin-3-yl]-amide]
< 1	< 1	< 1				Nc1cnc(-c2c(F)cccc2F)nc1C(=O)Nc1cnccc1N1CC[C@@H](O)[C@H](N)C1 (stereo in doubt) [Example 663, 5-Amino-2-(2,6-difluoro-phenyl)-pyrimidine-4-carboxylic acid (3-amino-4-hydroxy-3,4,5,6-tetrahydro-2H-[1,4′]bipyridinyl-3′-yl)-amide]
			< 1	< 1	< 1	Nc1ccc(-c2c(F)ccc(OCc3ccccc3Cl)c2F)nc1C(=O)Nc1cnccc1N1CCC[C@H](N)C1 [Example 464, 3-Amino-6-[3-(2-chloro-benzyloxy)-2,6-difluoro-phenyl]-pyridine-2-carboxylic acid (3-amino-3,4,5,6-tetrahydro-2H-[1,4′]bipyridinyl-3′-yl)-amide]
< 1	< 1	< 1				Nc1ccc(-c2ncc(C(F)(F)F)cc2Cl)nc1C(=O)Nc1cnccc1N1CCC[C@H](N)C1 [Example 720, 5-Amino-3′-chloro-5′-trifluoro-methyl-[2,2′]bipyridinyl-6-carboxylic acid (3-amino-3,4,5,6-tetrahydro-2H-[1,4′]bi-pyridinyl-3′-yl)-amide]
< 1	< 1	< 1				N[C@H]1CCCN(c2ccncc2NC(=O)c2nc(-c3ccccc3F)ccc2F)C1 [Example 571, 3-Fluoro-6-(2-fluoro-phenyl)-pyridine-2-carboxylic acid (3-amino-3,4,5,6-tetrahydro-2H-[1,4′]bipyridinyl-3′-yl)-amide]
< 1	< 1	< 1				Nc1ccc(-c2c(F)cccc2F)nc1C(=O)Nc1cnccc1N1CCC[C@H](O)C1 [Example 653, 3-Amino-6-(2,6-difluoro-phenyl)-pyridine-2-carboxylic acid (3-hydroxy-3,4,5,6-tetra-hydro-2H-[1,4′]bipyridinyl-3′-yl)-amide]
< 1	< 1	< 1				CCOc1cncc(-c2ccc(N)c(C(=O)Nc3cnccc3N3CCC[C@H](N)C3)n2)n1 [Example 749, 3-Amino-6-(6-ethoxy-pyrazin-2-yl)-pyridine-2-carboxylic acid (3-amino-3,4,5,6-tetrahydro-2H-[1,4′]bipyridinyl-3′-yl)-amide]
			< 1	< 1	< 1	COc1cc(F)c(-c2ccc(N)c(C(=O)Nc3cnccc3N3CCC[C@H](N)C3)n2)cc1F [Example 477, 3-Amino-6-(2,5-difluoro-4-methoxy-phenyl)-pyridine-2-carboxylic acid (3-amino-3,4,5,6-tetrahydro-2H-[1,4′]bipyridinyl-3′-yl)-amide]
< 1	< 1	< 1				Nc1cnc(-c2ccc(N)c(C(=O)Nc3cnccc3N3CCC[C@H](N)C3)n2)cn1 [Example 729, 3-Amino-6-(5-amino-pyrazin-2-yl)-pyridine-2-carboxylic acid (3-amino-3,4,5,6-tetrahydro-2H-[1,4′]bipyridinyl-3′-yl)-amide]
			< 1	< 1	< 1	N#Cc1ccsc1-c1ccc(N)c(C(=O)Nc2cnccc2N2CCC[C@H](N)C2)n1 [Example 490, 3-Amino-6-(3-cyano-thiophen-2-yl)-pyridine-2-carboxylic acid (3-amino-3,4,5,6-tetrahydro-2H-[1,4′]bipyridinyl-3′-yl)-amide]
			< 1	< 1	< 1	Nc1cc(-c2ccncc2NC(=O)c2cccc(-c3ccc(F)cc3F)n2)nc(C(F)(F)F)n1 [Example 527, 6-(2,4-Difluoro-phenyl)-pyridine-2-carboxylic acid [4-(6-amino-2-trifluoromethyl-pyrimidin-4-yl)-pyridin-3-yl]-amide]
< 1	< 1	< 1				Cc1cc(Cl)cnc1-c1ccc(N)c(C(=O)Nc2cnccc2N2CCC[C@H](N)C2)n1 [Example 701, 5-Amino-5′-chloro-3′-methyl-[2,2′]bipyridinyl-6-carboxylic acid (3-amino-3,4,5,6-tetra-hydro-2H-[1,4′]bipyridinyl-3′-yl)-amide]
< 1	< 1	< 1				Nc1cc(F)c(-c2c(F)ccc(O)c2F)nc1C(=O)Nc1cnccc1N1CCC[C@H](N)C1 [Example 751, 3-Amino-N-(4-((S)-3-aminopiperidin-1-yl)pyridin-3-yl)-6-(2,6-difluoro-3-hydroxyphenyl)-5-fluoropicolinamide]
< 1	< 1	1 to 10				NC1CC(CO)CN(c2ccncc2NC(=O)c2nc(-c3c(F)cccc3F)ccc2F)C1 (stereo not drawn) [Example 575, 6-(2,6-Difluoro-phenyl)-3-fluoro-pyridine-2-carboxylic acid (5-amino-3-hydroxymethyl-3,4,5,6-tetrahydro-2H-[1,4′]bipyridinyl-3′-yl)-amide]
